Measured values from patent US5344843A, “Cat-1 inhibitors, pharmaceutical compositions and methods of use” (Hoffman-La Roche Inc., priority 1992, dated 1994).
Where a name gives a salt, the structure may show the parent alone.

Key:
[1] = biological target: T1, CAT-1 (carnitine acyltransferase 1) (Rattus norvegicus, UniProt Q63704); experiment: Primary Screen--Inhibition of CAT-1 in isolated mitochondria; type: biochemical; settings: rat heart mitochondria, reduction of palmitoyl carnitine formation by 50%; read-out: Primary Screen IC50
T1 construct: This preparation is used as the isolated mitochondrial preparation; from tissue; host or cells: rat heart (atria removed), isolated mitochondria
T1 sequence (Q63704 1-772): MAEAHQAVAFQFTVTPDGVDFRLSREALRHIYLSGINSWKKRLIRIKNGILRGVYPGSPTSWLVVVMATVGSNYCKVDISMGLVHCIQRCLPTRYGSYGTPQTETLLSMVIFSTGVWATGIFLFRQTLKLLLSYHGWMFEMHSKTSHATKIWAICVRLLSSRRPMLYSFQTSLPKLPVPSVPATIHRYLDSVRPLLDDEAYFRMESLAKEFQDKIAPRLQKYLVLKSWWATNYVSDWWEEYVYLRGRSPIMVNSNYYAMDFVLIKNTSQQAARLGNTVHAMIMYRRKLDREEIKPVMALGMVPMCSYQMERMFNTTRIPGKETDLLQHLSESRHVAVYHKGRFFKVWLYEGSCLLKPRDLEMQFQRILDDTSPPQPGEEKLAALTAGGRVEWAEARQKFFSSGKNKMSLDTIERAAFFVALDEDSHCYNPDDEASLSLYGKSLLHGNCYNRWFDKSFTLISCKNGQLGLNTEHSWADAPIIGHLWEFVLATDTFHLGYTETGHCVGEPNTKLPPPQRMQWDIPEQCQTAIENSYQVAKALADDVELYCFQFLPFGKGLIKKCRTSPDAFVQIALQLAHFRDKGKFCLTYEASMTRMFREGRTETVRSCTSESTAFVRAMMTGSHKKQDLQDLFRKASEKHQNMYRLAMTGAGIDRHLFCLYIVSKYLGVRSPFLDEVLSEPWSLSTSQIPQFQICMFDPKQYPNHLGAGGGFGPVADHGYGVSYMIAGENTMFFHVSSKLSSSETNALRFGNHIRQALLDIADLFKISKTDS
Protocol: Primary Screen--Inhibitors of CAT-1 in 1Mitochondria
(a). Preparation of Mitochondria
The heart is rapidly removed from an anesthetized rat (sodium pentabarbitol) and placed in ice-cold homogenization buffer (sucrose, 250 mM; Tris, 10 mM; EDTA, 1 mM; BSA, 0.01%; pH=7.4). The atria and extraneous tissue are removed and the remainder is chopped with scissors. The pieces are rinsed in homogenization buffer before being homogenized in 10 mL of the same buffer for 5-7 seconds. The homogenate is then diluted with homogenization buffer (40 total volume) and centrifuged at 200 g for 20 minutes. The supernatant is withdrawn and centrifuged at 7000 g for 20 minutes and the resulting pellet is isolated, resuspended in 40 mL of homogenization buffer and centrifuged once more at 7000 g for 20 minutes. The isolated pellet is resuspended in 10 mL of homogenization buffer and stored at 4° C. until use. This preparation is used as the isolated mitochondrial preparation.
(b). Inhibition of CAT-1 assay
Isolated mitochondria (20 μL) are incubated with 60 μL of Tris/sucrose buffer (sucrose, 500 mM; Tris, 20 mM; KCl, 100 mM; EDTA, 2 mM; pH=7.0 plus 83 μM palmitoyl CoA, and BSA, 0.8 mg/mL and 10^-4 to 10^-10 M of the drug to be tested. After 10 minutes at 30° C., the reaction is started by addition of 10 μL of ^3 H-carnitine (final concentration=250 μM). After 5 minutes, the reaction is terminated by the addition of ice cold 70% perchloric acid (PCA). The precipitated solids so formed, containing the insoluble product of the enzyme palmitoyl carnitine, are captured on filter paper. The filter paper is washed with 7% PCA, then dried and placed in scintillation vials with 10 mL of scintillant (Aquasol, New England Nuclear) and counted for radioactivity. The rate of the reaction is assessed by the difference in radioactivity between zero time and five minutes in the absence of test compound. The ability of test compounds at selected concentrations to inhibit CAT-1 is determined by their ability to reduce the formation of the radioactive product. The IC50 of the test compound is the concentration of test compound that reduces the formation of radioactive product by 50%.

[2] = biological target: T1, CAT-1 (carnitine acyltransferase 1); experiment: Secondary Screen--Inhibition of CAT-1 in intact cardiac myocytes (hypoxia-induced increase in long-chain acylcarnitines); type: cell-based; design: inhibition: dose or concentration left out as unconfirmed; settings: isolated rat cardiac myocytes; for IC50: 50% inhibition of hypoxia-induced increase in long-chain acylcarnitines
Protocol: Secondary Screen--Inhibition of CAT-1 in intact Cardiac Myocytes
(a) Preparation of Isolated Rat Cardiac Myocytes
Four hearts are excised from anesthetized rats and perfused retrogradly via the Langendorf technique. Each heart receives 100 mL of Krebs (NaCl, 118.4 mM; KCL, 4.6 mM; NaH2 PO4, 1.0 mM; NaHCO3, 20 mM; MgSO4, 2 mM; CaCl2, 50 μM; glucose, 11.0 mM), 100 mL of Ca++ free Krebs and finally 100 mL of 0.5% collagenase (Boehringer Mannhelm, type 1) in Hepes (NaCl, 115 mM; KCl, 5 mM; sucrose, 35 mM; glucose, 10 mM; Hepes, 10 mM; taurine, 4 mM; MgSO4, 2 mM; CaCl2, 50 μM). After these perfusions, the hearts are chopped into pieces, approx. 0.5 cm×0.5 cm and placed in four 125 mL plastic bottles along with 25 mL of collagenase/Hepes situated in a water bath maintained at 35° C. The pieces of cardiac tissue in each bottle are agitated by using a Harvard respirator connected to four glass syringes, which sucks the tissue up and down each tube during each respiratory cycle. After fifteen minutes, the collagenase/Hepes is removed and replaced with fresh collegenase/Hepes and the process repeated. The collegenase/Hepes from the subsequent fifteen minute harvests are centrifuged at 500 g to pellet the cells which are then resuspended in Hepes buffer. After six harvests, all cells are pelleted, resuspended in 2×26.5 mL of Hepes plus BSA (350 mg) and layered on top of 2×percoll gradients (21.15 mL percoll, 2.35 mL NaCl, 6 drops acetic acid). This is centfifuged at 3000 g for eight minutes forming a percoll gradient which results in viable cells being separated from damaged cells. The viable cells are removed, washed with Hepes and finally resuspended in 25 mL of Hepes.
The isolated cardiac myocytes (2 mL; approximately 1×10^6 cells) are separated into six glass pods. Into four of these are placed selected concentrations of the compound to be tested, and the cells are incubated for twenty minutes, after which the pods are centrifuged at 300 g for three minutes. 300 μL of normoxic Hepes is placed in one of the pods not containing compound and then all pods are placed in a hypoxic chamber (N2 atmosphere). Oxygen is fed via small bore steel tubes to the pod containing the normoxic buffer, while the other five pods receive pre-purified argon (99.998% pure). After two minutes, Hepes (pre-gassed with argon for at least twelve hours) is fed into the five hypoxic pods. This hypoxic environment (pO2 <10 mm Hg) is maintained for twenty minutes, after which the cells and pods are frozen by contact with a metal block precooled in liquid N2. The pods are then removed from the chamber and stored at -70° C. The carnitine assay is performed, as described below in (c), to determine the amount of long-chain acylcarnitine in the cells from the normoxic, hypoxic and hypoxic plus compound samples. […] Thus the IC50 in this screen is the concentration of test compound which produces a 50% inhibition of the hypoxia-induced increase in long-chain acylcarnitines.
(c) Long-chain Acylcarnitine Assay.
The frozen cell samples are thawed, mixed and homogenized with 40 μL of 70% PCA. The homogenate is transferred to eppendorf tubes while the homogenization tube and the glass pod is rinsed with 500 μL of 7% PCA, with the rinse being added to the eppendorf tube. This is then centrifuged at 1000 g for two minutes to pellet the precipitate (containing the long-chain acylcarnitine) and the supernatant is discarded. The pellet is washed twice with 500 μL of 7% PCA, the supernatants being discarded. The pellet is then hydrolyzed (to separate the acyl unit from carnitine to yield free carnitine) by the addition of 200 μL of aleionized H2 O and 50 μL of 5N KOH and incubated at 70° C. for ninety minutes.

O=C(O)C(=O)c1ccc(OCCCCOc2ccc3ccccc3c2)cc1 [Example 88, 4-[[4-(2-naphthalenyloxy)butyl]oxy]-alpha-oxobenzeneacetic acid]
IC50 [1]: 0.17 µM
IC50 [2]: 3.5 µM

O=C(O)C(=O)c1ccc(OCCOC2CCCCCCC2)cc1 [Example 101, 4-[[2-(cyclooctyloxy)ethyl]oxy]-alpha-oxobenzeneacetic acid]
IC50 [1]: 0.9 µM
IC50 [2]: 50 µM

O=C(O)C(=O)c1ccc(OCCCCOc2ccccc2)cc1 [Example 71, alpha-oxo-4-[[(4-phenoxy)butyl]oxy]benzeneacetic acid]
IC50 [1]: 0.4 µM
IC50 [2]: 20 µM

CC(C)c1cccc(-c2ccc(F)cc2)c1OCCOc1ccc(C(=O)C(=O)O)cc1 [Example 234, 4-[2-[4'-fluoro-3-(1-methylethyl)[1,1'-biphenyl]-2-yloxy]ethoxy]-alpha-oxobenzeneacetic acid]
inhibition ([2]; hypoxia): 90%

O=C(O)C(=O)c1ccc(OCCCc2ccccc2)cc1 [Example 23, 4-[(3-phenylpropyl)oxy]-alpha-oxobenzeneacetic acid]
IC50 [1]: 0.5 µM
IC50 [2]: 37 µM

CCC(C)(C)C(=O)OCc1cccc(C)c1C#CCOc1ccc(C(=O)C(=O)O)cc1 [Example 212, 4-[3-[2-[(2,2-dimethyl-1-oxobutoxy)methyl]-6-methylphenyl]-2-propynyloxy]-alpha-oxobenzeneacetic acid (1:1) morpholine salt]
IC50 [1]: 0.47 µM
inhibition ([2]; hypoxia): 47%

CN(O)C(=O)C(=O)c1ccc(OCCOc2ccc3ccccc3c2)cc1 [Example 299, N-hydroxy-N-methyl-4-[2-(2-naphthalenyloxy)ethoxy]-alpha-oxobenzeneacetamide]
IC50 [1]: 1.9 µM
IC50 [2]: 8 µM

C[N+](C)(C)CCOC(=O)C(=O)c1ccc(OCCOc2ccc3ccccc3c2)s1 [Example 7, 2-[[5-[[2-(2-naphthalenyloxy)ethyl]oxy]-alpha-oxo-2-thiopheneacetyl]oxy]-N,N,N-trimethylethanaminium iodide]
IC50 [1]: 0.03 µM
IC50 [2]: 0.1 µM

CCCc1c(OCCCOc2ccc(C(=O)C(=O)O)cc2)ccc(C(C)=O)c1O [Example 257, 4-[3-(4-acetyl-3-hydroxy-2-propylphenoxy)propoxy]-alpha-oxobenzeneacetic acid]
IC50 [1]: 0.38 µM
IC50 [2]: 0.1 µM

CCC(C)(C)C(=O)OCc1cccc(C)c1OCCOc1ccc(/C(=N/OC)C(=O)O)cc1 [Example 304, (Z)-4-[2-[2-[(2,2-Dimethyl-1-oxobutoxy)methyl]-6-methylphenyloxy]ethoxy]-alpha-methoxyiminobenzeneacetic acid]
IC50 [1]: 3.3 µM
IC50 [2]: 5 µM

O=C(O)C(=O)c1ccc(OCCCn2c(=O)c3ccccc3c3ccccc32)cc1 [Example 262, 4-[3-(5,6-dihydro-6-oxo-5-phenanthridinyl)propoxy]-alpha-oxobenzeneacetic acid]
IC50 [1]: 1 µM
inhibition ([2]; hypoxia): 99%

O=C(O)C(=O)c1ccc(OC/C=C/c2ccc3ccccc3c2)cc1 [Example 96, (E)-4-[[3-(2-naphthalenyl)-2-propenyl]oxy]-alpha-oxobenzeneacetic acid]
IC50 [1]: 0.065 µM
IC50 [2]: 7 µM

CO/N=C(\C(=O)O)c1ccc(OCCOc2ccc3ccccc3c2)s1 [Example 307, (E)-alpha-(methoxyimino)-5-[2-(2-naphthalenyloxy)ethoxy]-2-thiopheneaceticacid]
IC50 [1]: 1.5 µM
IC50 [2]: 5 µM

CN(C)CCOC(=O)C(=O)c1ccc(OCCOc2ccc3ccccc3c2)cc1 [Example 106, 4-[[2-(2-naphthalenyloxy)ethyl]oxy]-alpha-oxobenzeneacetic acid 2-(dimethylamino)ethyl ester]
IC50 [1]: 0.09 µM
IC50 [2]: 1 µM

O=C(O)C(=O)c1ccc(OCCOC2CCCCCCC2)s1 [Example 9, 5-[[2-(cyclooctyloxy)ethyl]oxy]-alpha-oxo-2-thiopheneacetic acid]
IC50 [1]: 1.8 µM
IC50 [2]: 8 µM

O=C(NO)C(=O)c1ccc(OCCOc2ccc3ccccc3c2)s1 [Example 300, N-hydroxy-5-[2-(2-naphthalenyloxy)ethoxy]-alpha-oxo-2-thiopheneacetamide]
IC50 [1]: 2.1 µM
IC50 [2]: 5 µM

O=C(OCC(O)CO)C(=O)c1ccc(OCCOc2ccc3ccccc3c2)cc1 (racemic) [Example 104, rac.-4-[[2-(2-naphthalenyloxy)ethyl]oxy]-alpha-oxobenzeneacetic acid 2,3-dihydroxypropyl ester]
IC50 [1]: 0.04 µM
IC50 [2]: 1.2 µM

O=C(O)C(=O)c1ccc(OCCOc2ccc3ccccc3c2)c(Cl)c1 [Example 185, 3-chloro-4-[2-(2-naphthalenyloxy)ethoxy]-alpha-oxobenzeneacetic acid]
IC50 [1]: 0.08 µM
IC50 [2]: 12 µM

O=C(O)C(=O)c1ccc(OCCOc2ccc3ccccc3c2)c(F)c1 [Example 199, 3-fluoro-4-[2-(2-naphthalenyloxy)ethoxy]-alpha-oxobenzeneacetic acid]
IC50 [1]: 0.17 µM
IC50 [2]: 0.6 µM

O=C(O)C(=O)c1ccc(CCCOc2ccc3ccccc3c2)cc1 [Example 143, 4-[3-(2-naphthalenyloxy)propyl]-alpha-oxobenzeneacetic acid]
IC50 [1]: 2.7 µM
IC50 [2]: 12 µM

O=C(O)C(=O)c1ccc(OCCCc2ccc3ccccc3c2)cc1 [Example 94, 4-[[3-(2-naphthalenyl)propyl]oxy]-alpha-oxobenzeneacetic acid]
IC50 [1]: 0.08 µM
IC50 [2]: 12 µM

O=C(O)/C(=N/O)c1ccc(OCCOc2ccc3ccccc3c2)s1 [Example 302, (Z)-alpha-(hydroxyimino)-5-[2-(2-naphthalenyloxy)ethoxy]-2-thiopheneaceticacid]
IC50 [1]: 0.24 µM
IC50 [2]: 0.9 µM

O=C(O)C(=O)c1c(F)c(F)c(OCCOc2ccc3ccccc3c2)c(F)c1F [Example 205, 2,3,5,6-tetrafluoro-4-[2-(2-naphthalenyloxy)ethoxy]-alpha-oxobenzeneaceticacid]
IC50 [1]: 7.2 µM
inhibition at 25 µM ([2]; @ 25 μM, hypoxia): 35%

CCC(C)(C)C(=O)OCc1cccc(C)c1/C=C\COc1ccc(C(=O)C(=O)O)cc1 [Example 215, (Z)-4-[3-[2-(2,2-dimethyl-1-oxobutoxy)methyl]-6-methylphenyl]-2-propenyloxy]-alpha-oxobenzeneacetic acid (1:1) morpholine salt]
IC50 [1]: 2 µM
IC50 [2]: 9 µM

O=C(O)C(=O)c1ccc(OCC(=O)c2ccc3ccccc3c2)cc1 [Example 157, 4-[2-(2-naphthalenyl)-2-oxoethoxy]-alpha-oxobenzeneacetic acid]
IC50 [1]: 0.05 µM
IC50 [2]: 0.3 µM

O=C(OCCOCCOCCO)C(=O)c1ccc(OCCOc2ccc3ccccc3c2)cc1 [Example 105, 4-[[2-(2-naphthalenyloxy)ethyl]oxy]-alpha-oxobenzeneacetic acid 2-[2-(2-hydroxyethoxy)ethoxy]ethyl ester]
IC50 [1]: 0.04 µM
IC50 [2]: 75 µM

CC(C)c1nc(-c2ccccc2)n(-c2ccc(F)cc2)c1/C=C/COc1ccc(C(=O)C(=O)O)cc1 [Example 243, (E)-4-[3-[1-(4-fluorophenyl)-4-(1-methylethyl)-2-phenyl-1H-imidazol-5-yl]-2-propenyloxy]-alpha-oxobenzeneacetic acid]
IC50 [2]: 7 µM

CC(C)n1c(/C=C/COc2ccc(C(=O)C(=O)O)cc2)c(-c2ccc(F)cc2)c2ccccc21 [Example 241, (E)-4-[3-[3-(4-fluorophenyl)-1-(1-methylethyl)-1H-indole-2-yl]-2-propenyloxy]-alpha-oxobenzeneacetic acid (1:1) morpholine salt]
IC50 [2]: 12 µM

O=C(O)C(=O)c1ccc(OC/C=C/c2ccc(F)cc2)cc1 [Example 29, (E)-4-[[3-(4-fluorophenyl)-2-propenyl]oxy]-alpha-oxobenzeneacetic acid]
IC50 [1]: 0.25 µM

CCC(C)(C)C(=O)Oc1cccc2ccc(OCCOc3ccc(C(=O)C(=O)OC)cc3)cc12 [Example 133, 4-[[2-[8-(2,2-dimethyl-1-oxobutoxy)-2-naphthalenyloxy]ethyl]oxy]-alpha-oxobenzeneacetic acid methyl ester]
IC50 [1]: 35 µM

O=C(O)C(=O)c1ccc(OCCOc2ccc([N+](=O)[O-])cc2)cc1 [Example 47, 4-[[2-(4-nitrophenoxy)ethyl]oxy]-alpha-oxobenzeneacetic acid]
IC50 [1]: 3 µM

O=C(O)C(=O)c1ccc(C#CCNC(=O)c2ccc3ccccc3c2)cc1 [Example 146, 4-[3-[[(2-naphthalenyl)carbonyl]amino]-1-propynyl]-alpha-oxobenzeneacetic acid]
IC50 [1]: 5.5 µM

O=C(O)C(=O)c1ccc(OCCOCCOc2ccc(C(=O)C(=O)O)cc2)cc1 [Example 78, 4,4'-[oxybis(2,1-ethanedienyloxy)]bis(alpha-oxobenzeneacetic acid)]
IC50 [1]: 2 µM

O=C(O)C(F)(F)c1ccc(OCCOc2ccccc2)cc1 [Example 11, alpha, alpha-difluoro-4-[[2-(phenoxy)ethyl]oxy]benzeneacetic acid]
IC50 [1]: 18 µM
